Seven compounds from ChEMBL document CHEMBL3352027, “Pharmacologically active metabolites, combination screening and target identification-driven drug repositioning in antituberculosis drug discovery” (2014) can be followed below.

In brackets after ≈: the same amount, converted by molar mass.

This assay deals with Mycobacterium tuberculosis. In words: Antitubercular activity against drug-resistant Mycobacterium tuberculosis. Format: functional.
As a reminder, the MIC is the lowest concentration that inhibits growth of the organism. For `CN[C@@H]1[C@H](O)[C@H](NC)[C@H]2O[C@]3(O)[C@H](O[C@@H]2[C@H]1O)O[C@H](C)C[C@H]3NC(=O)Cc1cc(Cl)ccn1`, the MIC is 1.6 µg/mL (≈ 3.29 µM).
The figure for `CN[C@@H]1[C@H](O)[C@H](NC)[C@H]2O[C@]3(O)[C@H](O[C@@H]2[C@H]1O)O[C@H](C)C[C@H]3NC(=O)Cc1cscn1` is 1.6 µg/mL (≈ 3.49 µM).
The compound `CN[C@@H]1[C@H](O)[C@H](NC)[C@H]2O[C@]3(O)[C@H](O[C@@H]2[C@H]1O)O[C@H](C)C[C@H]3NC(=O)Cc1ccc(F)cn1` came in with an MIC of 1.6 µg/mL (≈ 3.4 µM).
The figure for `CN[C@@H]1[C@H](O)[C@H](NC)[C@H]2O[C@]3(O)[C@H](O[C@@H]2[C@H]1O)O[C@H](C)C[C@H]3NC(=O)Cc1ccccc1` is 1.6 µg/mL (≈ 3.54 µM); for `CN[C@@H]1[C@H](O)[C@H](NC)[C@H]2O[C@]3(O)[C@H](O[C@@H]2[C@H]1O)O[C@H](C)C[C@H]3NC(=O)CNC(C)(C)C` it is 1.6 µg/mL (≈ 3.58 µM).
Compound `CN[C@@H]1[C@H](O)[C@H](NC)[C@H]2O[C@]3(O)[C@H](O[C@@H]2[C@H]1O)O[C@H](C)C[C@H]3NC(=O)Cc1ccccn1` showed an MIC of 1.6 µg/mL (≈ 3.54 µM).
The result for `CN[C@@H]1[C@H](O)[C@H](NC)[C@H]2O[C@]3(O)[C@H](O[C@@H]2[C@H]1O)O[C@H](C)C[C@H]3NC(=O)Cc1ccc(Cl)cn1` reads 1.6 µg/mL (≈ 3.29 µM).
